According to paper PMC12530842, “Potent, Selective, and Drug‐Like G Protein‐Coupled Receptor Kinase 5 and 6 Inhibitors: Design, Synthesis, and X‐Ray Structural Studies” (Chemmedchem, 2025):
Entries after “also recorded” stand apart in the source; their conditions may differ.

What was measured:
Assay type in all cases: biochemical
[1] = biological target: T1, GRK6 (Homo sapiens, UniProt P43250, C561S/C562S/C565S/T10A); assay: GRK6 kinase inhibition assay, phosphorylation of tubulin ([γ-32P]-ATP); settings: for Selectivity GRK5/GRK6: fold selectivity for GRK6 over GRK5; for IC50: phosphorylation of the soluble substrate tubulin, ± standard deviation from 3 to 4 independent experiments
T1 construct: His tag (inferred: purified by the GRK5 protocol, which starts with nickel-NTA); made in house; host or cells: Sf9 insect cells
T1 sequence (P43250 whole entry T10A/C561S/C562S/C565S): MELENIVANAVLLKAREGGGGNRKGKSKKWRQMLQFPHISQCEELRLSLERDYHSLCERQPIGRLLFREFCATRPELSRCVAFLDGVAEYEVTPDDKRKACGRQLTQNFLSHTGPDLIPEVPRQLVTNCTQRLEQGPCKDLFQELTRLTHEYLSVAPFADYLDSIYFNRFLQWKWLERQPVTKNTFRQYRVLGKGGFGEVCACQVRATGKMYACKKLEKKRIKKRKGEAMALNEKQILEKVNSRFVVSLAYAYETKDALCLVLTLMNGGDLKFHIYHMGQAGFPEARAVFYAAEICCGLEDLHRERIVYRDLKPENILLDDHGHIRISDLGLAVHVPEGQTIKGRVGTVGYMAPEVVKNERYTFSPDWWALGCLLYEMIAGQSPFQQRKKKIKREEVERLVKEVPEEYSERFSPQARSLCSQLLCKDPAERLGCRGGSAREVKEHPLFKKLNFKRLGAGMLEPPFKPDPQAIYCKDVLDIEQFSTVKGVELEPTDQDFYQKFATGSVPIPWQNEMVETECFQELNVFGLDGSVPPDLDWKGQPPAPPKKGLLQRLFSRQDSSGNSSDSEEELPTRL
Procedure: (§1) The inhibitory potency of synthetic compounds containing the N‐heterocyclic amide functionalities was evaluated against human GRK2, GRK5 and GRK6 using our in vitro assays‐, as reported previously.^[ [35], [37] ^] […] We then investigated the effect of (R)‐ and (S)‐Boc pyrrolidine carboxamide derivatives. […] These improvements of GRK5 IC50 values over their Boc‐derivatives (6c and 6d) indicated the bulky Boc group may not be able to fit as well in the catalytic site of these GRKs. On the other hand, sterically less demanding acetamide derivatives 6e and 6f were well accommodated consistent with their very good activity against GRK5, GRK6, and GRK2, but only with marginal selectivity against GRK2. […] We also examined the effect of 3(S)‐ and 3(R)‐Boc‐pyrrolidine derivatives.
(§2) Protein expression and purification.
(§3) Human GR K5 (residues 1- 590) w ild- type and D 311N mutant w ere expressed in E. co li Rosetta (D E3) and purified v ia nickel-nitrilotriacetic acid affinity chromatography, followed by tandem columns consisting of a HiTrap Q HP anion exchange chromatography column and a HiTrap SP HP cation exchange chromatography column, and finished by Superdex 200 Increase size -exclusion chromatography, as described previously. Human GRK6 (with T10A and mutations that eliminate palmitoylation sites) was expressed in Sf9 insect cells [ 2] and was purified w ith the same protocol for GR K5 [1]. Human GRK2 w as purified as described previously.
(§4) Kinase inhibition Assays.
(§5) Inhibit ion assays were conducted in a reaction mixture containing 20 mM H EPES pH 7. 0, 2 mM MgC l2, and 0.025% n- dodecyl-β-D-maltoside. Prior to reaction initiation, GR K5 or GR K6 at 50 nM was mixed w ith porcine brain tubulin ( PurSolutions) at a concentration of 500 nM. The assay w as started w ith a 30- second incubation of inhibitors, followed by the add it ion of 5 μ M ATP supplemented w ith radioactive [γ-32P]-AT P a t 60 C i/m mol (PerkinElm er Life Sciences). Re actions pro ceeded for 5 m inut es at ro o m te mpera ture a nd were terminated by adding 4X SDS loading buffer. T he reaction mixtures were then s eparated via SDS - PAG E, dried, and exposed using a phosphor imaging screen. Quantification was performed using a Personal Molecular Imager and Quantity One 1- D Analysis Software. Analogous inhibition assays were conducted on p urified GR K2 wit h a t ub ulin conce ntrat ion of 1 μ M. Data ana lysis was perf orme d usin g Graph Pa d Pr ism, and IC50 values wer e calculated based on three- parameter dose- dependent curves (with a Hill coefficient fixed at 1) plotting phosphate transfer against inhibitor concentration. At least three replicates were conducted to determine the mean and standard deviation of IC50 values as published previously . […]
(§6) (6) The final models w ere validated with MolProbity prior to depos ition along with structure factors in the Protein Data Bank. Atomic figures were created with Py mol (7). Cr ystallographic statistics are reported in Supplemental Table 1. Coordinates for inh ib itor 6t (GRL-098- 22) w ere deposited in the Protein Data Bank, with accession code 9BR K.
(§7) 1. Y. Chen, A. Sonawane, R. Manda, R. K. G adi, J. J. G. Tesmer, A. K. Ghosh. Development of a new class of potent and highly select ive G protein- coupled r eceptor kinase 5 inhibitors and structural insight from crystal structures of inhibitor complexes. Eur. J. Med. Chem. 2024, 264, 115931.
(§8) 2. D. T. Lodowski, V. M. T esmer, J. L. Benovic, J. J. Tesmer. The structure of G protein- coupled receptor kinase (GRK)-6 defines a second lineage of GRKs. J. Bio l. C he m. 2006, 281,16785- 16793.

[2] = biological target: T2, GRK5 (Homo sapiens, UniProt P34947); assay: GRK5 kinase inhibition assay, phosphorylation of tubulin ([γ-32P]-ATP); settings: for Selectivity GRK2/GRK5: fold selectivity for GRK5 over GRK2; for IC50: phosphorylation of the soluble substrate tubulin, ± standard deviation from 3 to 4 independent experiments
T2 construct: Human GR K5 (residues 1- 590) w ild- type and D 311N mutant w ere expressed in E. co li Rosetta; His tag (inferred from nickel-NTA purification); made in house; host or cells: E. coli Rosetta (DE3)
T2 sequence (P34947 whole entry, the tested form may be a part): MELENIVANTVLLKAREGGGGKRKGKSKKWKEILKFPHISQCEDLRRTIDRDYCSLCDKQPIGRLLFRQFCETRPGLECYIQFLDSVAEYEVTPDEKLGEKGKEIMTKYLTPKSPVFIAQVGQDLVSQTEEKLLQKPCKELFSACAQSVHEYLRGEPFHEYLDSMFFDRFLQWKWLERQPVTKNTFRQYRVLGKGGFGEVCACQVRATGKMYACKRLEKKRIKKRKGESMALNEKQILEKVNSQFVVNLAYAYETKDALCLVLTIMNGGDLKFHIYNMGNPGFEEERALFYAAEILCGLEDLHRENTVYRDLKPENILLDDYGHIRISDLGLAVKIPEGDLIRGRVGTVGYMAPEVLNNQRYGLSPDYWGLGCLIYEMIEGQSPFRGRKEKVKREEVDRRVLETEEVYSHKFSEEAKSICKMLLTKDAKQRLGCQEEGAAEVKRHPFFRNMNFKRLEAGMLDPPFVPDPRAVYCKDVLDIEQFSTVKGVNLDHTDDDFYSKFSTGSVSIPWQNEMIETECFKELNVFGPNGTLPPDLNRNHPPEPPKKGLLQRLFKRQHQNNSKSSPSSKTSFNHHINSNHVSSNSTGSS
Procedure: as §1, §2, §3, §4, §5, §6, §7, §8

[3] = biological target: T3, GRK2 (Homo sapiens, UniProt P25098); assay: GRK2 kinase inhibition assay, phosphorylation of tubulin ([γ-32P]-ATP); settings: for IC50: phosphorylation of the soluble substrate tubulin, ± standard deviation from 3 to 4 independent experiments
T3 construct: made in house
T3 sequence (P25098 1-689): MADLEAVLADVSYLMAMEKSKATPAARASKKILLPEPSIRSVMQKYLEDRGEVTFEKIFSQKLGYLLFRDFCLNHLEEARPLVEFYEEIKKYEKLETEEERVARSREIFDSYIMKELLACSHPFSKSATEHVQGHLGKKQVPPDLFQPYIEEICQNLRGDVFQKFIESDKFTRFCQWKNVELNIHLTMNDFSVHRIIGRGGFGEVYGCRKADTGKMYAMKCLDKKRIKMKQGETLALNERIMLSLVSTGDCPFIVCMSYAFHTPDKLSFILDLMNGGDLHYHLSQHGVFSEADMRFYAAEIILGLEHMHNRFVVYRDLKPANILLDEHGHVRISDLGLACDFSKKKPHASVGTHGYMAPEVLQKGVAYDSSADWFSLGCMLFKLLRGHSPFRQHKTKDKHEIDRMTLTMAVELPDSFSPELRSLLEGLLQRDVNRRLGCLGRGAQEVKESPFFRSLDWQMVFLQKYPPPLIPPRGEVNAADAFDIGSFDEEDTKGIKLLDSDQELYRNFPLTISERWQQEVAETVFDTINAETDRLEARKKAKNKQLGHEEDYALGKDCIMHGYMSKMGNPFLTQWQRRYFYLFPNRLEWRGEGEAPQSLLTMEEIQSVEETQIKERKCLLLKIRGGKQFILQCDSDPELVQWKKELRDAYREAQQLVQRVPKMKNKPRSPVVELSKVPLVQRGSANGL
Procedure: as §1, §2, §3, §4, §5, §6, §7, §8

| Selectivity GRK5/GRK6 [1] [fold] | IC50 [1] [µM] | Selectivity GRK2/GRK5 [2] [fold] | IC50 [2] [µM] | IC50 [3] [µM] | fold reduction of GRK5 activity ([2]; in comparison with compound 6a) [fold] | fold enhanced GRK5 inhibitory activity ([2]; over the (R)-Boc derivative 6c) | activity against GRK2 (in words) [3] | selectivity over GRK2 ([2]; GRK5 vs GRK2, as stated in text) | Structure (SMILES) | GRK6 IC50 (in words) [1] | GRK5 IC50 (in words) [2] |
| --- | --- | --- | --- | --- | --- | --- | --- | --- | --- | --- | --- |
| 1 | 0.02 ± 0.01 | 26 | 0.027 ± 0.006 | 0.71 ± 0.4 | – | – | – | – | Cc1[nH]c(/C=C2\C(=O)Nc3ccc(C(=O)N[C@H](C)c4ccc(F)cc4)cc32)c(C)c1NC(=O)[C@@H]1CCC(=O)N1 [6a, (Z)‐3‐((3,5‐Dimethyl‐4‐((S)‐5‐Oxopyrrolidine‐2‐Carboxamido)‐1H‐Pyrrol‐2‐Yl)Methylene)‐N‐((R)‐1‐(4‐Fluorophenyl)Ethyl)‐2‐Oxoindoline‐5‐Carboxamide] | – | – |
| 30 | 0.028 ± 0.002 | 3 | 0.8 ± 0.4 | 2.1 ± 0.2 | 30 | – | – | – | Cc1[nH]c(/C=C2\C(=O)Nc3ccc(C(=O)N[C@H](C)c4ccc(F)cc4)cc32)c(C)c1NC(=O)[C@H]1CCC(=O)N1 [6b, (Z)‐3‐((3,5‐Dimethyl‐4‐((R)‐5‐Oxopyrrolidine‐2‐Carboxamido)‐1H‐Pyrrol‐2‐Yl)Methylene)‐N‐((R)‐1‐(4‐Fluorophenyl)Ethyl)‐2‐Oxoindoline‐5‐Carboxamide] | – | – |
| 35 | 1.4 ± 0.5 | >3 | 50 ± 30 | 160 ± 100 | – | – | – | – | Cc1[nH]c(/C=C2\C(=O)Nc3ccc(C(=O)N[C@H](C)c4ccc(F)cc4)cc32)c(C)c1NC(=O)[C@H]1CCCN1C(=O)OC(C)(C)C [6c, Tert‐Butyl(R)‐2‐((5‐(((Z)‐5‐(((R)‐1‐(4‐Fluorophenyl)Ethyl)Carbamoyl)‐2‐Oxoindolin‐3‐Ylidene)Methyl)‐2,4‐Dimethyl‐1H‐Pyrrol‐3‐Yl)Carbamoyl)Pyrrolidine‐1‐Carboxylate] | – | – |
| – | 9.9 ± 2 | >2000 | 0.44 ± 0.16 | > 1000 | – | over 100 fold | – | – | Cc1[nH]c(/C=C2\C(=O)Nc3ccc(C(=O)N[C@H](C)c4ccc(F)cc4)cc32)c(C)c1NC(=O)[C@@H]1CCCN1C(=O)OC(C)(C)C [6d, Tert‐Butyl(S)‐2‐((5‐(((Z)‐5‐(((R)‐1‐(4‐Fluorophenyl)Ethyl)Carbamoyl)‐2‐Oxoindolin‐3‐Ylidene)Methyl)‐2,4‐Dimethyl‐1H‐Pyrrol‐3‐Yl)Carbamoyl)Pyrrolidine‐1‐Carboxylate] | – | – |
| 1 | 0.06 ± 0.02 | 8 | 0.04 ± 0.006 | 0.32 ± 0.09 | – | – | – | – | CC(=O)N1CCC[C@@H]1C(=O)Nc1c(C)[nH]c(/C=C2\C(=O)Nc3ccc(C(=O)N[C@H](C)c4ccc(F)cc4)cc32)c1C [6e, (Z)‐3‐((4‐((R)‐1‐Acetylpyrrolidine‐2‐Carboxamido)‐3,5‐Dimethyl‐1H‐Pyrrol‐2‐Yl)Methylene)‐N‐((R)‐1‐(4‐Fluorophenyl)Ethyl)‐2‐Oxoindoline‐5‐Carboxamide] | – | – |
| 2 | 0.031 ± 0.02 | 15 | 0.06 ± 0.02 | 0.9 ± 0.3 | – | – | – | – | CC(=O)N1CCCC1C(=O)Nc1c(C)[nH]c(C=C2C(=O)Nc3ccc(C(=O)NC(C)c4ccc(F)cc4)cc32)c1C [6f, ((Z)‐3‐((4‐((S)‐1‐Acetylpyrrolidine‐2‐Carboxamido)‐3,5‐Dimethyl‐1H‐Pyrrol‐2‐Yl)Methylene)‐N‐((R)‐1‐(4‐Fluorophenyl)Ethyl)‐2‐Oxoindoline‐5‐Carboxamide] | – | – |
| 1 | 0.03 ± 0.002 | 3 | 0.04 ± 0.02 | 0.1 ± 0.01 | – | – | – | – | Cc1[nH]c(/C=C2\C(=O)Nc3ccc(C(=O)N[C@H](C)c4ccc(F)cc4)cc32)c(C)c1NC(=O)[C@H]1CCCN1 [6g, (Z)‐3‐((3,5‐Dimethyl‐4‐((R)‐Pyrrolidine‐2‐Carboxamido)‐1H‐Pyrrol‐2‐yl)Methylene)‐N‐((R)‐1‐(4‐Fluorophenyl)Ethyl)‐2‐Oxoindoline‐5‐Carboxamide] | – | – |
| 3 | 0.034 ± 0.01 | 1 | 0.09 ± 0.04 | 0.08 ± 0.01 | – | – | – | – | Cc1[nH]c(/C=C2\C(=O)Nc3ccc(C(=O)N[C@H](C)c4ccc(F)cc4)cc32)c(C)c1NC(=O)[C@@H]1CCCN1 [6h, (Z)‐3‐((3,5‐Dimethyl‐4‐((S)‐pyrrolidine‐2‐carboxamido)‐1H‐pyrrol‐2‐yl)methylene)‐N‐((R)‐1‐(4‐fluorophenyl)ethyl)‐2‐oxoindoline‐5‐carboxamide] | – | – |
| 2 | 0.5 ± 0.2 | 130 | 0.92 ± 0.5 | 120 ± 50 | – | – | little to no activity | – | Cc1[nH]c(C=C2C(=O)Nc3ccc(C(=O)NC(C)c4ccc(F)cc4)cc32)c(C)c1NC(=O)C1C=CCN1C(=O)OC(C)(C)C [6i, Tert‐Butyl(S)‐2‐((5‐(((Z)‐5‐(((R)‐1‐(4‐Fluorophenyl)Ethyl)Carbamoyl)‐2‐Oxoindolin‐3‐yl‐ Idene)Methyl)‐2,4‐Dimethyl‐1H‐Pyrrol‐3‐Yl)Carbamoyl)‐2,5‐Dihydro‐1H‐Pyrrole‐1‐Carboxylate] | sub‐micromolar; also recorded: low micromolar range | sub‐micromolar; also recorded: low micromolar range |
| 1 | 0.03 ± 0.01 | 16 | 0.03 ± 0.004 | 0.48 ± 0.4 | – | – | – | over 15 fold | Cc1[nH]c(/C=C2\C(=O)Nc3ccc(C(=O)N[C@H](C)c4ccc(F)cc4)cc32)c(C)c1NC(=O)[C@@H]1C=CCN1 [6j, (Z)‐3‐((4‐((S)‐2,5‐Dihydro‐1H‐Pyrrole‐2‐Carboxamido)‐3,5‐Dimethyl‐1H‐Pyrrol‐2‐Yl)Methylene)‐N‐((R)‐1‐(4‐Fluorophenyl)Ethyl)‐2‐Oxoindoline‐5‐Carboxamide] | – | – |
| 1 | 1.4 ± 0.2 | 140 | 2.1 ± 0.9 | 300 ± 100 | – | – | little to no activity | – | Cc1[nH]c(/C=C2\C(=O)Nc3ccc(C(=O)N[C@H](C)c4ccc(F)cc4)cc32)c(C)c1NC(=O)[C@@H]1CCN(C(=O)OC(C)(C)C)C1 [6k, Tert‐Butyl(R)‐3‐((5‐(((Z)‐5‐(((R)‐1‐(4‐Fluorophenyl)Ethyl)Carbamoyl)‐2‐Oxoindolin‐3‐Ylidene)Methyl)‐2,4‐Dimethyl‐1H‐Pyrrol‐3‐Yl)Carbamoyl)Pyrrolidine‐1‐Carboxylate] | low micromolar range | low micromolar range |
